From patent US20230312651A1, “Cyclic Peptide, Peptide Complex, and Drug Composition Containing Said Cyclic Peptide and/or Said Peptide Complex” (The University of Tokyo, priority 2020, published 2023)
“Also recorded” adds a separate entry of the source. Starred links: 1 amine or outer side, 2 acyl side, 3 side chain; linkers in the order of their positions; H or OH if unused. Positions of bridges follow the written chain, without caps; N, C: chain ends. Non-standard residues stand in square brackets, D forms with d. Residues, ends and D or L forms follow the SMILES beside them. Chains are numbered I, II in the order given. NH(CH2CH2O)6CH2CO = O=C(COCCOCCOCCOCCOCCOCCN[*:1])[*:2]; Dap = NC[C@H](N)C(=O)O

How the values were obtained:
[1] = molecular target: T1, extracellular domain of hTrkB (Homo sapiens, UniProt Q16620); assay: SPR binding kinetics (Biacore T200), hTrkB; conditions: Monomer (cyclic peptide), 1:1 binding model, 1 to 1000 nM, read-out: binding affinity KD, TrkB
T1 construct: the extracellular domain of hTrkA, hTrkC, and hTrkB
Procedure: (§1) With respect to the binding kinetics (binding affinity (dissociation constant) KD) of the cyclic peptides towards the extracellular domain of hTrkA, hTrkC, and hTrkB (which will hereinafter be called “hTrkA-C proteins”, collectively) immobilized on a sensor chip via a His6-tag, quantitative measurements making use of surface plasmon resonance (SPR) were carried out to evaluate the binding intensity and selectivity of the cyclic peptide to hTrkB, compared with that to hTrkA and hTrkC.
(§2) The binding kinetics of each peptide towards the hTrkA-C proteins were determined using Biacore T200 (GE Healthcare). The buffer used was HBS-P+ (10 mM HEPES, 150 mM NaCl, and 0.05 vol% surfactant P20, pH 7.4) containing 0.1 vol% DMSO and 1 mM b-dodecyl-maltoside. 100 nM hTrkA-C proteins were immobilized on a Ni^2+ treated NTA chip in accordance with the manufacturer’s instructions (baseline response 1000 to 3000 refraction units). Peptides were injected as an analyte at a flow rate of […] and binding kinetics was modelled using a 1:1 binding model.

[2] = molecular target: T2, extracellular domain of hTrkC (Homo sapiens, UniProt Q16288); assay: SPR binding kinetics (Biacore T200), hTrkC; conditions: 1:1 binding model
T2 construct: the extracellular domain of hTrkA, hTrkC, and hTrkB
T2 sequence (Q16288 32-429 limits assumed): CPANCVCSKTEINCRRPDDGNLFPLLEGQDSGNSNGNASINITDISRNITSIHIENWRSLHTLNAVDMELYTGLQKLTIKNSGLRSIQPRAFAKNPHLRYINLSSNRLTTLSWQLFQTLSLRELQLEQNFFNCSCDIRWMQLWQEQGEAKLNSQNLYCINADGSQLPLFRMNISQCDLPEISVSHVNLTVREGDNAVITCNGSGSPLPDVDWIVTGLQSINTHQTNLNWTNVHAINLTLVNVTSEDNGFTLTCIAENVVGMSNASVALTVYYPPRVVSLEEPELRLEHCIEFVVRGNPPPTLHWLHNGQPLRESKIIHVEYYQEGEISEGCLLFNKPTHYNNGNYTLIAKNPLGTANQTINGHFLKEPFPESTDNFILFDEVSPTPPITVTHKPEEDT
Procedure: as §1, §2

[3] = molecular target: extracellular domain of hTrkA (Homo sapiens, UniProt P04629); assay: SPR binding kinetics (Biacore T200), hTrkA; set-up: the extracellular domain of hTrkA, hTrkC, and hTrkB; conditions: 1:1 binding model
Procedure: as §1, §2

mouse TrkB = molecular target: T3, mouse TrkB (Mus musculus, UniProt P15209); assay: Western blot of phosphorylated Trk in primary mouse hippocampal neurons; assay type: cell-based
T3 construct: induce phosphorylation of mouse TrkB in primary mouse hippocampal neurons; endogenous in cells; host or cells: primary mouse hippocampal neurons (DIV6)
T3 sequence (P15209 32-821): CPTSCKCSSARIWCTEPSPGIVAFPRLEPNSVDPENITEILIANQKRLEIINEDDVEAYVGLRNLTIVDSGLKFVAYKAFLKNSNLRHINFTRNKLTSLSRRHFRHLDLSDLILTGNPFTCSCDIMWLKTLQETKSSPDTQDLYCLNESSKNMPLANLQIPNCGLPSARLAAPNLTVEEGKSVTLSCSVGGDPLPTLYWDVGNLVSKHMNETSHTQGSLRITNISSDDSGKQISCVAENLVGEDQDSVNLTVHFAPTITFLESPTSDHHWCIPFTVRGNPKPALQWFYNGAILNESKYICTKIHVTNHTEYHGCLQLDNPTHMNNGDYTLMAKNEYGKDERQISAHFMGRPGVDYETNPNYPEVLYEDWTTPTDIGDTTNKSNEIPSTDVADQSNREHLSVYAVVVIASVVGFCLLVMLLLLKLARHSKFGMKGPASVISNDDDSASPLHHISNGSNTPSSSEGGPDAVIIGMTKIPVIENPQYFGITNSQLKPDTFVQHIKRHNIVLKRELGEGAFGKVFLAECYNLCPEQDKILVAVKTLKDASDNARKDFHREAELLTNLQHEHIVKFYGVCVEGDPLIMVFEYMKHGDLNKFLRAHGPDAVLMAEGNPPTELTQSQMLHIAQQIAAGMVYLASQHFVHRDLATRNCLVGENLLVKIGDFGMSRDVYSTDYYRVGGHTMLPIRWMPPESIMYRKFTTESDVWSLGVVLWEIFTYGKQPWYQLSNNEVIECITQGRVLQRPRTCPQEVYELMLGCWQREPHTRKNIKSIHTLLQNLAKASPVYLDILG
Procedure: (§3) After washing with 0.1 M PBS twice, cells were lysed in a radio-immunoprecipitation assay (RIPA) buffer containing 50 mM Tris-HCI (pH 7.4), 150 mM NaCl, 2 mM EDTA, 1% Nonidet P-40, 0.5% Na-deoxycholate, 0.1% SDS, 50 mM NaF, 0.2 mM Na3VO4, 10 µg/mL aprotinin, 10 µg/mL leupeptin, and 1 mM phenylmethylsulfonyl fluoride on ice for 30 minutes. After ultrasonic treatment and centrifugation at 20,000 ×g for 30 minutes, the supernatant was subjected to SDS-PAGE. Protein amount was quantified using Bicinchoninic Acid Kit (BCA-1, Sigma).
The cell lysate (protein amount: 20 µg in P-TrkB, 10 µg in TrkB, and 5 µg in Akt and Erk) was separated using 8% polyacrylamide gel and transferred to a polyvinylidene difluoride membrane (Merck Millipore, Massachusetts, USA). The resulting membrane was blocked for 1 hour with a blocking buffer (5% bovine serum albumin (BSA) tris-buffered physiological saline (TBST) containing 0.05% tween-20), followed by incubation overnight at 4° C. in a blocking buffer containing a primary antibody (rabbit anti-TrkB antibody, 1:1,000 dilution, Cat#4603; rabbit anti-phosphorylated Trk antibody, 1:1,000 dilution, Cat#9141; mouse anti-pan-Akt antibody, 1:2,000 dilution, Cat#2920; rabbit anti-phosphorylated Akt (S473) antibody, 1:2,000 dilution, Cat#4060; rabbit anti-Erk½ antibody, 1:2,000 dilution, Cat#4695; mouse anti-phosphorylated Erk½ antibody, 1:2,000 dilution, Cat#9106 (Cell Signaling Technology)). After washing with TBST for 10 minutes four times, the membrane was incubated with a secondary antibody (peroxidase-conjugated goat anti-rabbit IgG antibody, 1:10,000 dilution, Cat#111-035-003 (Jackson Immuno Research); peroxidase-conjugated sheep anti-mouse IgG antibody, 1:10,000 dilution, Cat#NA9310 (GE Healthcare)) for one hour at room temperature.
Finally, after the resulting membrane was washed with TBST, an immune-positive bands were detected by a chemiluminescence method using a Luminata Crescendo HPR substrate (Merck Millipore). The relative phosphorylation level of each kinase was calculated as a ratio of phosphorylated kinase/all kinases. […]

[4] = tested on: 40 RTKs (receptor tyrosine kinases); assay: Phospho-RTK array evaluation (off-target activity); assay type: cell-based, mouse; conditions: primary hippocampal neurons (DIV6)
Procedure: Comprehensive study of the phosphorylated tyrosine kinase receptor was conducted using a phospho-RTK array in accordance with the manufacturer’s protocol (Proteome Profiler mouse Phospho-RTK Array Kit, ARY014, R&D Systems). The phosphorylation level was evaluated by pixel density and quantified by Image J Software.

[5] = tested on: primary hippocampal neurons; assay: Immunocytochemistry for evaluation of axonal outgrowth; assay type: cell-based; conditions: for axonal outgrowth: p<0.01 vs DMSO
Procedure: The cells were washed twice with 0.1 M phosphate-buffered physiological saline (PBS) and immobilized for 15 minutes with 2% paraformaldehyde (PFA)/4% sucrose (in 0.1 M PBS). After washing three times with PBS, the cells were subjected to permeabilization for 3 minutes with PBS (P\BST) containing 0.2% Triton-X and incubated for one hour with a blocking solution (PBST containing 5% normal goat serum) to prevent non-specific binding. Then, the cells were incubated overnight at 4° C. with a primary antibody diluted with the blocking solution (rabbit anti-Tau polyclonal antibody, 1:1,000 dilution; cat#ab64193 (abcam); mouse anti-MAP2 monoclonal antibody, 1:1,000 dilution, M4403 (Sigma)). After washing of the cells with PBST for 10 minutes was performed four times, they were incubated at room temperature for 2 hours with a fluorescently-labeled secondary antibody diluted with the block solution (Alexa Fluor 488-labeled goat anti-mouse IgG antibody, 1:1,000 dilution, A-11029; Alexa Fluor 568-labeled goat anti-rabbit IgG antibody, 1:1,000 dilution, A-21069 (Thermo Fisher Scientific)).
Next, after washing of the cells with PBST for 10 minutes was performed four times, they were mounted with […] containing DAPI (H-1200 (Vector Laboratories)) and an image was obtained using a Virtual Slide microscope system (VS120 (Olympus)) having a x20 objective lens. The images were analyzed using a neuron J plugin in Image J software and the neurite length tracing and quantification were performed (Meijering, E.; Jacob, M.; Sarria, J. C.; Steiner, P.; Hirling, H.; Unser, M., Design and validation of a tool for neurite tracing and analysis in fluorescence microscopy images. Cytometry A 2004, 58 (2), 167-76.).

TrkB = TrkB (Homo sapiens, UniProt Q16620); conditions: Non-Patent Document 3; cited from earlier work
TrkB, sequence (Q16620 32-822, species assumed): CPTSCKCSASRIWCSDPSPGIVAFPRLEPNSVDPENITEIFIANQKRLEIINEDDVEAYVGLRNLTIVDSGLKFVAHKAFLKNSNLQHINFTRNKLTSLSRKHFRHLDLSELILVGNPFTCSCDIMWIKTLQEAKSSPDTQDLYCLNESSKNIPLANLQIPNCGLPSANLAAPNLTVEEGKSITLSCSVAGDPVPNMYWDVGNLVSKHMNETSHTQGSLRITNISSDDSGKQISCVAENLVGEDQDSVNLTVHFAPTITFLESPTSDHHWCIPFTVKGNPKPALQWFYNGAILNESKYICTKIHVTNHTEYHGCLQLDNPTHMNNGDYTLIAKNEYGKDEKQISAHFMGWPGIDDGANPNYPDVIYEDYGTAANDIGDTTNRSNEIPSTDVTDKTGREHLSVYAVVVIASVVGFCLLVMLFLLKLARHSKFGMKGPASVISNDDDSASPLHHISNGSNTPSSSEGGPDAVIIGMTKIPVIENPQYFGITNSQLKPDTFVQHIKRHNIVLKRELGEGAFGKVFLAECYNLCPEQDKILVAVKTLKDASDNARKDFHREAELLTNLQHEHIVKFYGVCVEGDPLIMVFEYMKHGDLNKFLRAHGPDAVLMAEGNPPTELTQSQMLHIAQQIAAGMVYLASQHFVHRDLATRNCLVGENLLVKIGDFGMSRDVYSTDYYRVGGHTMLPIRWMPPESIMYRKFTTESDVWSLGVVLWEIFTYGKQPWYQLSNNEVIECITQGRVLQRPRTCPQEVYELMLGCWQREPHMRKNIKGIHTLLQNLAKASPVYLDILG

Akt = assay: Western blot of phosphorylated Akt (S473) in primary hippocampal neurons; assay type: cell-based, mouse; conditions: 1 nM, 15 minutes, primary hippocampal neurons (DIV6); p<0.01 vs DMSO
Procedure: as §3
(§4) The cell lysate (protein amount: 20 µg in P-TrkB, 10 µg in TrkB, and 5 µg in Akt and Erk) was separated using 8% polyacrylamide gel and transferred to a polyvinylidene difluoride membrane (Merck Millipore, Massachusetts, USA). […]
(§5) Finally, after the resulting membrane was washed with TBST, an immune-positive bands were detected by a chemiluminescence method using a Luminata Crescendo HPR substrate (Merck Millipore). The relative phosphorylation level of each kinase was calculated as a ratio of phosphorylated kinase/all kinases.

Erk½ = assay: Western blot of phosphorylated Erk½ in primary hippocampal neurons; assay type: cell-based, mouse; conditions: 1 nM, 15 minutes, primary hippocampal neurons (DIV6); p<0.01 vs DMSO
Procedure: as §3, §4, §5

c-fos = assay: qRT-PCR of c-fos mRNA in primary cortical neurons; assay type: cell-based; conditions: 1 nM, one hour, primary cortical neurons (DIV6); p<0.01
Procedure: (§6) The total RNA was quantitatively and qualitatively verified by a NanoDrop spectrometer (Thermo Fisher Scientific) and electrophoresis in a formaldehyde gel.
(§7) Next, 500 ng of the total RNA was reverse-transcribed using Super Script II (Thermo Fisher Scientific). Quantitative PCR was carried out using a SYBR Green real-time PCR system by the previously reported method (Akashi, M.; Takumi, T., The orphan nuclear receptor RORalpha regulates circadian transcription of the mammalian core-clock Bmal1. Nat Struct Mol Biol 2005, 12 (5), 441-8.). A Gapdh gene was used as an internal control. The following primer sequences were respectively used: Gapdh (Forward: 5′-[…]-3′ and reverse: 5′-[…]-3′) (represented by SEQ ID NOS: 14 and 15, respectively), c-fos (Forward: 5′-[…]-3′ and reverse: 5′-[…]-3′) (represented by SEQ ID NOS: 16 and 17, respectively), and Arc (Forward: 5′-[…]-3′ and reverse: 5′-[…]-3′)(represented by SEQ ID NOS: 18 and 19, respectively).

Arc = assay: qRT-PCR of Arc mRNA in primary cortical neurons; assay type: cell-based; conditions: 1 nM, one hour, primary cortical neurons (DIV6); p<0.01
Procedure: as §6, §7

Q: With CC(C)C[C@@H]1NC(=O)[C@H](CCCNC(=N)N)NC(=O)[C@H](Cc2ccccc2)NC(=O)[C@H](CCCNC(=N)N)NC(=O)[C@@H]2CCCN2C(=O)[C@H]([C@@H](C)O)NC(=O)[C@H](CCC(N)=O)NC(=O)[C@H](Cc2c[nH]c3ccccc23)NC(=O)[C@H](Cc2ccccc2)NC(=O)[C@H](CCCNC(=N)N)NC(=O)[C@H](Cc2ccc(O)cc2)NC(=O)CSC[C@@H](C(=O)NCC(=O)N[C@@H](CO)C(=O)NCC(=O)N[C@@H](CO)C(=O)NCC(=O)N[C@@H](CO)C(N)=O)NC1=O [TrbL2] ({CH2CO}-YRFWQTPRFRLCGSGSGS-NH2; thioether N-12) as the compound, how does the Kd [1] read?
A: Its Kd is 70 nM.

Q: And the “binding affinity KD, TrkC” value ([2]; Monomer (cyclic peptide), 1 to 1000 nM)?
A: The value was “N.B”.

Q: What about the Kd ([3]; Monomer (cyclic peptide), 1 to 1000 nM, read-out: binding affinity KD, TrkA) of the same compound?
A: Its Kd is 100 nM.

Q: Which “phosphorylation of Trk” value (mouse TrkB; 0.1 nM, 15 minutes, primary mouse hippocampal neurons (DIV6)) does the source give for “BDNF: brain-derived neurotrophic factor, natural protein agonist of TrkB, positive control” here?
A: The value was “induced phosphorylation of Trk”.

Q: And the “RTK phosphorylation in phospho-RTK array” value ([4]; 0.1 nM, incubation for one hour as printed)?
A: The value was “caused phosphorylation of TrkB”.

Q: And the “axonal length of primary neurons” value ([5]; 2 nM BDNF, DIV0 to 3)?
A: Its value is “elongated”.

Q: What about the “affinity for TrkB relative to that of p75” value (TrkB) of the same compound?
A: The value was “at least 10 times”.

Q: For CC(C)C[C@@H]1NC(=O)[C@H](Cc2ccc(O)cc2)NC(=O)CSC[C@@H](C(=O)NCC(=O)N[C@@H](CO)C(=O)NCC(=O)N[C@@H](CO)C(=O)NCC(=O)N[C@@H](CO)C(=O)NCCOCCOCCOCCOCCOCCOCC(=O)NC[C@H](NC(=O)COCCOCCOCCOCCOCCOCCNC(=O)[C@H](CO)NC(=O)CNC(=O)[C@H](CO)NC(=O)CNC(=O)[C@H](CO)NC(=O)CNC(=O)[C@@H]2CSCC(=O)N[C@@H](Cc3ccc(O)cc3)C(=O)N[C@@H](CC(C)C)C(=O)N[C@@H](CCCNC(=N)N)C(=O)N3CCC[C@H]3C(=O)N[C@@H](CCCNC(=N)N)C(=O)N[C@@H](Cc3ccc(O)cc3)C(=O)N[C@@H](CCCCN)C(=O)N[C@@H](Cc3ccccc3)C(=O)N[C@@H](Cc3c[nH]c4ccccc34)C(=O)N2)C(N)=O)NC(=O)[C@H](Cc2c[nH]c3ccccc23)NC(=O)[C@H](Cc2ccccc2)NC(=O)[C@H](CCCCN)NC(=O)[C@H](Cc2ccc(O)cc2)NC(=O)[C@H](CCCNC(=N)N)NC(=O)[C@@H]2CCCN2C(=O)[C@H](CCCNC(=N)N)NC1=O [DiTrbL3] (I: {CH2CO}-YLRPRYKFWCGSGSGS[NH(CH2CH2O)6CH2CO][Dap]-NH2 / II: {CH2CO}-YLRPRYKFWCGSGSGS[NH(CH2CH2O)6CH2CO]; amide I:18-II:C; thioether I:N-I:10, II:N-II:10), which “binding affinity KD, TrkC” value ([2]; Homodimer (peptide complex)) is on record?
A: Its value is “N.B”.

Q: And the “TrkB phosphorylation, dose titration” value (mouse TrkB; 0.2 nM, p<0.01 vs DMSO)?
A: The value was “obviously induces TrkB phosphorylation”.

Q: And the “phosphorylation of TrkB” value (mouse TrkB; 1 nM, 15 minutes, primary mouse hippocampal neurons (DIV6))?
A: The value was “induced phosphorylation of TrkB”.

Q: And the “phosphorylation of Akt” value (Akt)?
A: The value was “drastically activated phosphorylation; also recorded: a significant difference is present in induction between DMSO and DiTrbL3”.

Q: And the “phosphorylation of Erk½” value (Erk½)?
A: The value was “drastically activated phosphorylation; also recorded: a significant difference is present in induction between DMSO and DiTrbL3”.

Q: What about the “RTK phosphorylation in phospho-RTK array” value ([4]; 1 nM, 40 RTKs) of the same compound?
A: Its value is “phosphorylated only TrkB”.

Q: What about the “mRNA expression of c-fos” value (c-fos) of the same compound?
A: The value was “significantly increased”.

Q: What about the “mRNA expression of Arc” value (Arc) of the same compound?
A: Its value is “significantly increased”.

Q: What about the axonal outgrowth ([5]; 10 nM, DIV0 to 3) of the same compound?
A: Its axonal outgrowth is “significantly reinforced the axonal outgrowth”.

Q: And the axonal outgrowth ([5]; 100 nM, DIV0 to 3)?
A: The axonal outgrowth was “significantly reinforced the axonal outgrowth”.

Q: What about the “axonal length of primary neurons” value ([5]; treated for 3 days (DIV0 to 3)) of the same compound?
A: Its value is “elongated”.

Q: What about the “binding affinity KD, TrkA” value ([3]; Homodimer (peptide complex)) of the same compound?
A: Its value is “N.B”.
